Assay results reported in patent US10538521B2, “Pyrimidine derivative having antimalarial activity” (CARNA BIOSCIENCES, INC., priority 2016, dated 2020).
Where a name gives a salt, the structure may show the parent alone. Read-outs that look alike come from different tables or passages of the source. One block for each compound: values may come before it.

Experiments:
[1] = system: K1 strain, a drug resistant strain of Plasmodium falciparum; assay: In vitro antimalarial assay (p-LDH, Malstat), K1 strain; assay type: cell-based; settings: read-out: Antimalarial activity (IC50 value), Strain K1
Outline: (§1)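 IC50 derived from concentration-response of parasite lactate dehydrogenase signal (Malstat reagent, NBT/PES formazan at 655 nm) after freeze-thaw lysis. Infected erythrocytes (hematocrit 2%, parasitaemia 0.5 or 1%) exposed 72 h to 12.5–0.0001 μM final compound under 3% O2-4% CO2-93% N2, FCR3 and K1 alike.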

[2] = system: FCR3 strain, a drug sensitive strain of Plasmodium falciparum; assay: In vitro antimalarial assay (p-LDH, Malstat), FCR3 strain; assay type: cell-based; settings: read-out: Antimalarial activity (IC50 value), Strain FCR3
Outline: as §1

[3] = system: P. berghei N strain (drug sensitive strain); assay: In vivo antimalarial assay, mouse model infected with rodent malaria; settings: Plasmodium berghei, ip, 96 h, read-out: Therapeutical Effect (%) inhibition; for inhibition in vivo at 3 mg/kg: 3 mg/kg i.p.
Description: In vivo antimalarial activity of the compound of the present invention was determined using a mouse model infected with rodent malaria P. berghei N strain (drug sensitive strain) by slightly modifying the method described in the above publication of Otoguro et al. (2001) and the method reported by Peters et al. (Peters, W., Portus, J. H. and Robinson, B. L.: The chemotherapy of rodent malaria. XXII. The value of drug-resistant strains of P. berghei in Screening for blood schizonticidal activity. Ann. Trop. Med. Parasitol., 69: 155-171, (1975)). The P. berghei N strain was generous gift from Dr. W. Peters (Northwick Park Institute for Medical Research, Middlesex, United Kingdom).
A group of three ICR male mice (Charles River Laboratories Japan, Inc.) weighing 18 to 20 g was used as a test animal. Using protozoa maintained and sub-cultured by in vivo passage, 2×10^6 parasite-infected erythrocytes were pre pared, and the mice were infected therewith by tail vein injection. For the therapeutic test, a 1-day suppressive test was performed. The day of infection was defined as day 0. Two hours after the infection, a solution of the test compound (solvent: 3% DMSO/0.5% methylcellulose400-solution or suspension) was administered intraperitoneally (i.p.) once to 3 times. On day 4, blood smear preparation was prepared by collecting from the tail vein and the ratio of parasite-infected erythrocytes (parasitaemia) was investigated to determine the therapeutic effect (inhibition percentage) based on the infection rate of the group to which the compound was not administered. The significance test was performed by Dunnett's test.

[4] = P. falciparum K1 (drug resistant), 72 h culture, p-LDH readout
[5] = P. falciparum FCR3 (drug sensitive), 72 h culture, p-LDH readout
[6] = 10 mg/kg i.p., administered once, parasitaemia on day 4, ICR mice
[7] = 10 mg/kg i.p., administered twice (day 0 and 1), parasitaemia on day 4, ICR mice
[8] = 10 mg/kg i.p., administered three times (day 0, 1 and 2), parasitaemia on day 4, ICR mice

SMILES: Cc1cc(C)nc(Nc2nc(Nc3ccn4ccnc4c3)cc(N3CCC4(CCCC4)C3)n2)c1 [Example 174, N2-(4,6-dimethylpyridin-2-yl)-N4-(imidazo[1,2-a]pyridin-7-yl)-6-(2-azaspiro[4.4]nonan-2-yl)pyrimidine-2,4-diamine]
IC50 [1, 4]: < 100 nM | IC50 [2, 5]: < 100 nM | inhibition in vivo at 10 mg/kg [3, 7]: 93.6%

SMILES: Cc1cc(C)nc(Nc2nc(Nc3ccn4ccnc4c3)cc(N3CC(C)C(C)C3)n2)c1 (stereo not drawn) [Example 147, N2-(4,6-dimethylpyridin-2-yl)-6-(3,4-dimethylpyrrolidin-1-yl)-N4-(imidazo[1,2-a]pyridin-7-yl)pyrimidine-2,4-diamine formate]
IC50 ([1]; K1, 72 h): < 100 nM | IC50 ([2]; FCR3, 72 h): < 100 nM | inhibition in vivo at 10 mg/kg [3]: 83.4%

SMILES: Cc1cc(C)nc(Nc2nc(Nc3ccn4ccnc4c3)cc(N3CCC(C)(C)C3)n2)c1 [Example 142, N2-(4,6-dimethylpyridin-2-yl)-6-(3,3-dimethylpyrrolidin-1-yl)-N4-(imidazo[1,2-a]pyridin-7-yl)pyrimidine-2,4-diamine]
IC50 [1, 4]: < 100 nM | IC50 [2, 5]: < 100 nM | inhibition in vivo at 10 mg/kg [3, 8]: 84.5%

SMILES: Cc1cc(C)nc(Nc2nc(Nc3ccn4ccnc4c3)cc(N(C)C)n2)c1 [Example 84, N2-(4,6-dimethylpyridin-2-yl)-N4-(imidazo[1,2-a]pyridin-7-yl)-N6,N6-dimethylpyrimidine-2,4,6-triamine]
IC50 [1, 4]: < 100 nM | IC50 [2, 5]: < 100 nM

SMILES: c1ccc(COc2ccc(Nc3nc(Nc4ccn5ccnc5c4)cc(N4CCOCC4)n3)cn2)cc1 [Example 91, N2-(6-(benzyloxy)pyridin-3-yl)-N4-(imidazo[1,2-a]pyridin-7-yl)-6-morpholinopyrimidine-2,4-diamine]
IC50 [1, 4]: 100 to 1000 nM | IC50 [2, 5]: < 100 nM

SMILES: CCOc1cc(Nc2ccn3ccnc3c2)nc(Nc2ccc(C)cn2)n1 [Example 38, 6-ethoxy-N4-(imidazo[1,2-a]pyridin-7-yl)-N2-(5-methylpyridin-2-yl)pyrimidine-2,4-diamine]
IC50 [1, 4]: 100 to 1000 nM | IC50 [2, 5]: 100 to 1000 nM

SMILES: CC(C)(C)COc1ccc(Nc2nc(Nc3ccn4ccnc4c3)cc(N3CCOCC3)n2)cn1 [Example 65, N4-(imidazo[1,2-a]pyridin-7-yl)-6-morpholino-N2-(6-(neopentyloxy)pyridin-3-yl)pyrimidine-2,4-diamine]
IC50 [1, 4]: 100 to 1000 nM | IC50 [2, 5]: 100 to 1000 nM

SMILES: Cc1cc(C)nc(Nc2nc(Nc3ccn4ccnc4c3)cc(N3CCC(F)(F)C3)n2)c1 [Example 138, 6-(3,3-difluoropyrrolidin-1-yl)-N2-(4,6-dimethylpyridin-2-yl)-N4-(imidazo[1,2-a]pyridin-7-yl)pyrimidine-2,4-diamine]
IC50 [1, 4]: 100 to 1000 nM | IC50 [2, 5]: < 100 nM

SMILES: Cc1cc(C)nc(Nc2nc(Nc3ccn4ccnc4c3)cc(NN3CCOCC3)n2)c1 [Example 199, N2-(4,6-dimethylpyridin-2-yl)-N4-(imidazo[1,2-a]pyridin-7-yl)-N6-morpholinopyrimidine-2,4,6-triamine]
IC50 [1, 4]: < 100 nM | IC50 [2, 5]: < 100 nM

SMILES: CCCCOc1ccc(Nc2nc(Nc3ccn4ccnc4c3)cc(N3CCOCC3)n2)cn1 [Example 62, N2-(6-butoxypyridin-3-yl)-N4-(imidazo[1,2-a]pyridin-7-yl)-6-morpholinopyrimidine-2,4-diamine]
IC50 [1, 4]: 100 to 1000 nM | IC50 [2, 5]: 100 to 1000 nM

SMILES: Cc1ccc(Nc2nc(N)cc(Nc3ccn4ccnc4c3)n2)cn1 [Example 85, N4-(imidazo[1,2-a]pyridin-7-yl)-N2-(6-methylpyridin-3-yl) pyrimidine-2,4,6-triamine]
IC50 [1, 4]: 1000 to 10000 nM | IC50 [2, 5]: 1000 to 10000 nM

Second part, led by results:

IC50 [1, 4]: < 100 nM | IC50 [2, 5]: < 100 nM
SMILES: CCc1ccnc(Nc2nc(Nc3ccn4ccnc4c3)cc(N3CCCC3)n2)c1 [Example 94, N2-(4-ethylpyridin-2-yl)-N4-(imidazo[1,2-a]pyridin-7-yl)-6-(pyrrolidin-1-yl)pyrimidine-2,4-diamine]
inhibition in vivo at 3 mg/kg ([3]; administered once, parasitaemia on day 4, ICR mice): 42.9%

IC50 [1, 4]: < 100 nM | IC50 [2, 5]: < 100 nM
SMILES: CCc1ccnc(Nc2nc(Nc3ccn4ccnc4c3)cc(N3CCOCC3)n2)c1 [Example 68, N2-(4-ethylpyridin-2-yl)-N4-(imidazo [1,2-a]pyridin-7-yl)-6-morpholinopyrimidine-2,4-diamine]
inhibition in vivo at 10 mg/kg [3, 6]: 41.7%

IC50 [1, 4]: < 100 nM | IC50 [2, 5]: < 100 nM
SMILES: CCCc1cccc(Nc2nc(Nc3ccn4ccnc4c3)cc(N3CCCCC3)n2)n1 [Example 105, N4-(imidazo[1,2-a]pyridin-7-yl)-6-(piperidin-1-yl)-N2-(6-propylpyridin-2-yl)pyrimidine-2,4-diamine]
inhibition in vivo at 10 mg/kg [3, 6]: 41.9%

IC50 [1, 4]: < 100 nM | IC50 [2, 5]: < 100 nM
SMILES: Cc1cccc(Nc2nc(Nc3ccn4ccnc4c3)cc(N3CCCCC3)n2)n1 [Example 28, N4-(imidazo[1,2-a]pyridin-7-yl)-N2-(6-methylpyridin-2-yl)-6-(piperidin-1-yl)pyrimidine-2,4-diamine]
inhibition in vivo at 10 mg/kg [3, 6]: 51.4%

IC50 [1, 4]: < 100 nM | IC50 [2, 5]: 100 to 1000 nM
SMILES: Cc1ccnc(Nc2nc(Nc3ccn4ccnc4c3)cc(N3CCCCC3)n2)c1 [Example 34, N4-(imidazo[1,2-a]pyridin-7-yl)-N2-(4-methylpyridin-2-yl)-6-(piperidin-1-yl)pyrimidine-2,4-diamine]
inhibition in vivo at 10 mg/kg [3, 6]: 51.5%

IC50 [1, 4]: < 100 nM | IC50 [2, 5]: < 100 nM
SMILES: CCCCc1cccc(Nc2nc(Nc3ccn4ccnc4c3)cc(N3CCCC3)n2)n1 [Example 165, N2-(6-butylpyridin-2-yl)-N4-(imidazo[1,2-a]pyridin-7-yl)-6-(pyrrolidin-1-yl)pyrimidine-2,4-diamine]
inhibition in vivo at 10 mg/kg [3, 7]: 98%

IC50 [1, 4]: < 100 nM | IC50 [2, 5]: < 100 nM
SMILES: CCCCc1cccc(Nc2nc(Nc3ccn4ccnc4c3)cc(N3CCCCC3)n2)n1 [Example 106, N2-(6-butylpyridin-2-yl)-N4-(imidazo[1,2-a]pyridin-7-yl)-6-(piperidin-1-yl)pyrimidine-2,4-diamine]
inhibition in vivo at 10 mg/kg [3, 8]: 87.4%

IC50 [1, 4]: < 100 nM | IC50 [2, 5]: < 100 nM
SMILES: CC(C)Cc1cccc(Nc2nc(Nc3ccn4ccnc4c3)cc(N3CCCC3)n2)n1 [Example 161, N4-(imidazo[1,2-a]pyridin-7-yl)-N2-(6-isobutylpyridin-2-yl)-6-(pyrrolidin-1-yl)pyrimidine-2,4-diamine]
inhibition in vivo at 10 mg/kg [3, 7]: 64.3%

IC50 [1, 4]: < 100 nM | IC50 [2, 5]: < 100 nM
SMILES: Cc1cc(C)nc(Nc2nc(Nc3ccn4ccnc4c3)cc(N3CCCCC3)n2)c1 [Example 32, N2-(4,6-dimethylpyridin-2-yl)-N4-(imidazo[1,2-a]pyridin-7-yl)-6-(piperidin-1-yl)pyrimidine-2,4-diamine]
inhibition in vivo at 10 mg/kg [3, 6]: 47.5%

IC50 [1, 4]: < 100 nM | IC50 [2, 5]: < 100 nM
SMILES: CCc1ccnc(Nc2nc(Nc3ccn4ccnc4c3)cc(N3CCC(C)(C)C3)n2)c1 [Example 170, 6-(3,3-dimethylpyrrolidin-1-yl)-N2-(4-ethylpyridin-2-yl)-N4-(imidazo[1,2-a]pyridin-7-yl) pyrimidine-2,4-diamine]
inhibition in vivo at 10 mg/kg [3, 6]: 92.9%

IC50 [1, 4]: < 100 nM | IC50 [2, 5]: < 100 nM
SMILES: COc1ccnc(Nc2nc(Nc3ccn4ccnc4c3)cc(N3CCCCC3)n2)c1 [Example 93, N4-(imidazo[1,2-a]pyridin-7-yl)-N2-(4-methoxypyridin-2-yl)-6-(piperidin-1-yl)pyrimidine-2,4-diamine]
inhibition in vivo at 3 mg/kg ([3]; administered twice (day 0 and 1), parasitaemia on day 4, ICR mice): 64.2%

IC50 [1, 4]: < 100 nM | IC50 [2, 5]: < 100 nM
SMILES: CCc1ccnc(Nc2nc(Nc3ccn4ccnc4c3)cc(N3CCC(OC)CC3)n2)c1 [Example 114, N2-(4-ethylpyridin-2-yl)-N4-(imidazo[1,2-a]pyridin-7-yl)-6-(4-methoxypiperidin-1-yl)pyrimidine-2,4-diamine]
inhibition in vivo at 10 mg/kg [3, 6]: 70.9%

IC50 [1, 4]: < 100 nM | IC50 [2, 5]: < 100 nM
SMILES: CCc1ccnc(Nc2nc(Nc3ccn4ccnc4c3)cc(N3CC(O)C3)n2)c1 [Example 115, 1-(2-((4-ethylpyridin-2-yl)amino)-6-(imidazo[1,2-a]pyridin-7-ylamino)pyrimidin-4-yl)azetidin-3-ol]
